One test relates to Sclerotinia sclerotiorum. Put plainly: Sclerotinia sclerotiorum (Cottony Rot of Oilseed Rape), growth inhibition in nutrient broth. It is filed as cell-based. Particulars: PDB potato dextrose broth, 24 °C, photometric, 3-4 days after application, read-out: control of Sclerotinia sclerotiorum (inhibition of growth). On the procedure:
(§1) Mycelia fragments or conidia suspensions of a fungus prepared either freshly from liquid cultures of the fungus or from cryogenic storage, are directly mixed into nutrient broth. DMSO solutions of the test compound (max. 10 mg/mL) are diluted with 0.025% Tween20 by a factor of 50 and 10 μL of this solution is pipetted into a microtiter plate (96-well format). The nutrient broth containing the fungal spores/mycelia fragments is then added to give an end concentration of the tested compound. The test plates are incubated in the dark at 24 °C and 96% relative humidity. The inhibition of fungal growth is determined photometrically after 2 to 7 days, depending on the pathosystem, and percent antifungal activity relative to the untreated check is calculated.
Mycelia fragments of a newly grown liquid culture of the fungus are directly mixed into nutrient broth (PDB potato dextrose broth). After placing a (DMSO) solution of test compound into a microtiter plate (96-well format) the nutrient broth containing the fungal material is added. The test plates are incubated at 24 °C and the inhibition of growth is determined photometrically 3-4 days after application.

In another test the test system is Pyrenophora teres. Nature of the test: Pyrenophora teres (Net Blotch of Barley), barley leaf segments, preventative. Particulars: 200 ppm; barley leaf segments cv. Hasso; inoculated 2 days after application; assessed 5-7 days after application. Format: in vivo. On the procedure:
(§2) Leaf disks or leaf segments of various plant species are cut from plants grown in a greenhouse. The cut leaf disks or segments are placed in multiwell plates (24-well format) onto water agar. The leaf disks are sprayed with a test solution before (preventative) or after (curative) inoculation. Compounds to be tested are prepared as DMSO solutions (max. 10 mg/mL) which are diluted to the appropriate concentration with 0.025% Tween20 just before spraying. The inoculated leaf disks or segments are incubated under defined conditions (temperature, relative humidity, light, etc.) according to the respective test system. A single evaluation of disease level is carried out 3 to 14 days after inoculation, depending on the pathosystem. Percent disease control relative to the untreated check leaf disks or segments is then calculated.
Barley leaf segments cv. Hasso are placed on agar in a multiwell plate (24-well format) and sprayed with the formulated test compound diluted in water. […] The inoculated leaf segments are incubated at 20 °C and 65% rh under a light regime of 12 h light/12 h darkness in a climate cabinet and the activity of a compound is assessed as disease control compared to untreated when an appropriate level of disease damage appears in untreated check leaf segments (5-7 days after application).

A further test deals with Botryotinia fuckeliana. Put plainly: Botryotinia fuckeliana syn. Botrytis cinerea (Gray Mould of Grapevine), growth inhibition in nutrient broth. Format: cell-based. The conditions noted are these: Vogels broth, 24 °C, photometric, 3-4 days after application, read-out: control of Botryotinia fuckeliana (inhibition of growth). On the procedure: as §1
Conidia of the fungus from cryogenic storage are directly mixed into nutrient broth (Vogels broth). After placing a (DMSO) solution of test compound into a microtiter plate (96-well format), the nutrient broth containing the fungal spores is added. The test plates are incubated at 24 °C and the inhibition of growth is determined photometrically 3-4 days after application.

The test system of the next test is Alternaria solani. Put plainly: Alternaria solani (Early Blight of Tomato), tomato leaf disks, preventative. It is filed as in vivo. The conditions noted are these: 200 ppm; tomato leaf disks cv. Baby; inoculated 2 days after application; assessed 5-7 days after application. On the procedure: as §2
Tomato leaf disks cv. Baby are placed on agar in multiwell plates (24-well format) and sprayed with the formulated test compound diluted in water. […] The inoculated leaf disks are incubated at 23 °C/21 °C (day/night) and 80% rh under a light regime of 12/12 h (light/dark) in a climate cabinet and the activity of a compound is assessed as percent disease control compared to untreated when an appropriate level of disease damage appears on untreated check disk leaf disks (5-7 days after application).

The test system of the next test is Glomerella lagenarium. Nature of the test: Glomerella lagenarium syn. Colletotrichum lagenarium (Anthracnose of Cucurbits), growth inhibition in nutrient broth. Format: cell-based. Particulars: Colletotrichum orbiculare, PDB potato dextrose broth, 24 °C, photometric, 3-4 days after application, read-out: control of Glomerella lagenarium (inhibition of growth). On the procedure:
as §1
Conidia of the fungus from cryogenic storage are directly mixed into nutrient broth (PDB potato dextrose broth). After placing a (DMSO) solution of test compound into a microtiter plate (96-well format), the nutrient broth containing the fungal spores is added. The test plates are incubated at 24 °C and the inhibition of growth is measured photometrically 3-4 days after application.

Test [1] deals with Mycosphaerella graminicola. Nature of the test: Mycosphaerella graminicola (Septoria tritici) (Septoria Blotch), growth inhibition in nutrient broth. Format: cell-based. The conditions noted are these: Zymoseptoria tritici, read-out: control of Mycosphaerella gramminicola (inhibition of growth). On the procedure: as §1
(§3) Conidia of the fungus from cryogenic storage are directly mixed into nutrient broth (PDB potato dextrose broth). After placing a (DMSO) solution of test compound into a microtiter plate (96-well format), the nutrient broth containing the fungal spores is added. The test plates are incubated at 24 °C and the inhibition of growth is determined photometrically 4-5 days after application.

The next test relates to Monographella nivalis. Put plainly: Monographella nivalis syn. Microdochium nivale, Fusarium nivale (Snow Mould, Foot Rot of Cereals), growth inhibition in nutrient broth. Format: cell-based. The conditions noted are these: PDB potato dextrose broth, 24 °C, photometric, 4-5 days after application, read-out: control of Monographella nivalis (inhibition of growth). The procedure: as §1, §3

With `Clc1ccc(CC2CON=C(c3c(Oc4cccc(C5CC5)c4)cnc4ccnn34)N2)c(Cl)c1` (stereo not shown) [Compound 1.1, 3-[6-(3-cyclopropylphenoxy)pyrazolo[1,5-a]pyrimidin-7-yl]-5-[(2,4-dichlorophenyl)methyl]-5,6-dihydro-4H-1,2,4-oxadiazine], the inhibition at 20 ppm with Sclerotinia sclerotiorum, in the test with Botryotinia fuckeliana and in the test on Glomerella lagenarium was at least 80% throughout. Besides, the “control of Pyrenophora teres (disease control compared to untreated)” value in the test on Pyrenophora teres is “at least 80%”. Moreover, the “control of Alternaria solani (percent disease control compared to untreated)” value in the test with Alternaria solani is “at least 80%”.

Turning to `Clc1ccc(CC2CON=C(c3c(Oc4cccc(C5CC5)c4)cnc4c(Cl)cnn34)N2)c(Cl)c1` (stereo not shown) [Compound 1.2, 3-[3-chloro-6-(3-cyclopropylphenoxy)pyrazolo[1,5-a]pyrimidin-7-yl]-5-[(2,4-dichlorophenyl)methyl]-5,6-dihydro-4H-1,2,4-oxadiazine], the inhibition at 20 ppm in the test with Botryotinia fuckeliana is at least 80%.

On to `Fc1cc2ncc(Oc3cccc(C4CC4)c3)c(C3=NOCC(Cc4ccc(Cl)cc4Cl)N3)n2n1` (stereo not shown) [Compound 1.3, 3-[6-(3-cyclopropylphenoxy)-2-fluoro-pyrazolo[1,5-a]pyrimidin-7-yl]-5-[(2,4-dichlorophenyl)methyl]-5,6-dihydro-4H-1,2,4-oxadiazine], for which the inhibition at 20 ppm in the test with Botryotinia fuckeliana was at least 80%.

With `Clc1ccc(CC2CON=C(c3c(Oc4cccc(C5CC5)c4)cnc4cc(Cl)nn34)N2)c(Cl)c1` (stereo not shown) [Compound 1.4, 3-[2-chloro-6-(3-cyclopropylphenoxy)pyrazolo[1,5-a]pyrimidin-7-yl]-5-[(2,4-dichlorophenyl)methyl]-5,6-dihydro-4H-1,2,4-oxadiazine], the inhibition at 20 ppm in the test with Botryotinia fuckeliana is at least 80%.

Turning to `Clc1ccc(CC2CON=C(c3c(Oc4cccc(C5CC5)c4)cnn4ccnc34)N2)c(Cl)c1` (stereo not shown) [Compound 1.5, 3-[7-(3-cyclopropylphenoxy)imidazo[1,2-b]pyridazin-8-yl]-5-[(2,4-dichlorophenyl)methyl]-5,6-dihydro-4H-1,2,4-oxadiazine], the inhibition at 20 ppm (in the test on Sclerotinia sclerotiorum; in test [1]; with Botryotinia fuckeliana; in the test on Monographella nivalis; in the test on Glomerella lagenarium) was at least 80% each time.

The term inhibition denotes the relative decrease from the control value, in per cent.

The record behind these values is US20260372306A1, “MICROBIOCIDAL HETEROBICYCLIC DIHYDROOXADIAZINE DERIVATIVES” (SYNGENTA CROP PROTECTION AG, priority 2022, published 2026).
